Experimental data reported in patent publication US20240299504A1, “COMPOSITIONS AND METHODS FOR TREATING ALZHEIMERS DISEASE” (priority 2023, published 2024).

How the values were obtained:
Assay type in all cases: in vivo, mouse
IBA1 and GFAP = test: Western blot of IBA1 and GFAP in cortex and hippocampus homogenates; details: 5×FAD brain homogenates (cortex and hippocampus), 6-MO female
Protocol: (§1) Parathyroid hormone (human) was purchased from TOCRIS Bioscience (Cat #3011/1, Abingdon, United Kingdom). WT or 5×FAD mice (both male and female) were treated with PTH1-34 intermittently [once daily injection of hPTH1-34 (50 μg/Kg) or vehicle (0.9% sodium chloride) (as a control) by subcutaneous injection, starting at 2-MO, 5 days per week] as described previously. Mice were then subjected to behavioral tests and sacrificed for examinations of their bone and brain phenotypes at the indicated ages.
(§2) Total proteins from cortex, hippocampus, or cultured astrocytes were extracted using RIPA lysis buffer [50 mM Tris-HCl (pH7.5), 150 mM NaCl, 1 mM EDTA, 1% v/v NP-40, 0.1% SDS, 1% sodium deoxycholate supplemented with Protease Inhibitor Cocktail (Roche) and 1 mM PMSF] and analyzed by Western Blot. Lysates were cleared by centrifugation at 12,000 g for 15 min at 4° C. to remove debris and to obtain homogenates. Homogenates samples were resolved by SDS-PAGE (8˜15%) gels and then electroblotted onto nitrocellulose membranes (Cat #1620112, Bio-Rad Laboratories). […] After washing with TBST 3 times, antibody reactivity was detected by the Enhanced Chemiluminescence (ECL) detection system (Amersham Biosciences). Band density of proteins was normalized in relation to loading control and analyzed using NIH ImageJ software. […]

5×FAD mice [1] = test: Morris water maze (MWM)
Protocol: Parathyroid hormone (human) was purchased from TOCRIS Bioscience (Cat #3011/1, Abingdon, United Kingdom). […] Mice were then subjected to behavioral tests and sacrificed for examinations of their bone and brain phenotypes at the indicated ages. For Morris water maze (MWM), a circular water tank (diameter of 120 cm) fulfilled with water and a 10 cm platform were used. Non-toxic white powder paint was added to water to make the surface opaque to hide the escape platform. The maze was virtually divided into 4 quadrants, one of which contained the platform 1 cm below the water surface as an escape platform. Mice were trained for 5 days, four trials per day with 20 min intervals between trials and 60 s per trial to locate the hidden platform. Then mice were left on the platform for 15 s to help them remember the location. On the 6th day, the escape platform was removed and mice were placed in water at the point farthest from the platform and recorded for 60 s. The swimming track was recorded using a video tracking system, and the time spent in each platform quadrant and the number of platform crossings were quantified. All behavioral trials were recorded by use of an overhead camera and analyzed by Etho Vision software (Etho Vision, Noldus). Mice were assigned and data were quantified, in a double-blind method.

[2] = test system: proinflammatory cytokines and chemokines; test: qRT-PCR of proinflammatory cytokines and chemokines in cortex and hippocampus; details: 6-MO 5×FAD female mice
Protocol: as §1
Total RNA was extracted from cortex, hippocampus, or cultured astrocytes using a TRizol reagent (Invitrogen, cat #15596-026, Carlsbad, CA, USA) as previously described. Purified RNA (1-5 μg) was used for cDNA synthesis with the Revert Aid First Strand cDNA Synthesis Kit (Thermo Scientific, cat #K1621, Waltham, MA, USA). The cDNA products were subjected to subsequent quantitative PCR (qPCR) using the QuantiFast SYBR Green PCR Kit (QIA-GEN, cat #204057, Hilden, Germany) with a qPCR System (StepOne Plus). Each sample was repeated at least 3 times, and the mRNA level was normalized to GAPDH using the 2^−ΔΔCt method.

p16Ink4a and p53 = test: Senescence markers in hippocampus (RT-PCR, Western blot)
Protocol: as §1, §2

5×FAD mice [3] = test: Y-maze test; details: 5×FAD female mice ~5-MO vs Veh-treated 5×FAD female
Protocol: as §1
Mice (female and male) at the age of ˜5-MO were subjected to behavioral studies. The experimental procedures are described as previously. […] The total arm entries and the number of tri-ads were recorded to quantify the percentage of spontaneous alternation. For novel object recognition (NOR), which tests mouse's memory ability for a novel object, 20 min were recorded to analyze the time to explore the old object vs. the new object of each mouse. […] During test trials, one of the objects was replaced with a new object and mice were free to explore for another 20 min, and the time spent exploring the new object and the old object was recorded. The discrimination index is quantified as the novelty object preference, which is the time spent exploring the new object minus the time exploring the old object over the total exploration time.

In the case of `CC[C@H](C)[C@H](NC(=O)[C@H](CCC(=O)O)NC(=O)[C@H](CO)NC(=O)[C@@H](NC(=O)[C@@H](N)CO)C(C)C)C(=O)N[C@@H](CCC(N)=O)C(=O)N[C@@H](CC(C)C)C(=O)N[C@@H](CCSC)C(=O)N[C@@H](Cc1cnc[nH]1)C(=O)N[C@@H](CC(N)=O)C(=O)N[C@@H](CC(C)C)C(=O)NCC(=O)N[C@@H](CCCCN)C(=O)N[C@@H](Cc1cnc[nH]1)C(=O)N[C@@H](CC(C)C)C(=O)N[C@@H](CC(N)=O)C(=O)N[C@@H](CO)C(=O)N[C@@H](CCSC)C(=O)N[C@@H](CCC(=O)O)C(=O)N[C@@H](CCCN=C(N)N)C(=O)N[C@H](C(=O)N[C@@H](CCC(=O)O)C(=O)N[C@@H](Cc1c[nH]c2ccccc12)C(=O)N[C@@H](CC(C)C)C(=O)N[C@@H](CCCN=C(N)N)C(=O)N[C@@H](CCCCN)C(=O)N[C@@H](CCCCN)C(=O)N[C@@H](CC(C)C)C(=O)N[C@@H](CCC(N)=O)C(=O)N[C@@H](CC(=O)O)C(=O)N[C@H](C(=O)N[C@@H](Cc1cnc[nH]1)C(=O)N[C@@H](CC(N)=O)C(=O)N[C@@H](Cc1ccccc1)C(=O)O)C(C)C)C(C)C` [PTH1-34], the “GFAP protein level (Western blot)” value (IBA1 and GFAP) is reported as “lower”, the “IBA1 protein level (Western blot)” value (IBA1 and GFAP) is reported as “lower” and the “MWM, latency to reach hidden platform during training” value (5×FAD mice [1]; 5×FAD female mice ~5-MO vs 5×FAD Veh) is reported as “faster learning of the hidden platform during MWM tests”. For the same molecule, the “MWM, spatial memory (time in target quadrant, target zone crossovers)” value (5×FAD mice [1]; 5×FAD female mice ~5-MO vs 5×FAD Veh, testing day) was “better spatial memory of the platform location”, the “MWM, spatial learning and memory” value (5×FAD mice [1]; 5×FAD male mice ~5-MO vs Veh) was “Little to no improvement” and the “expression of upregulated inflammatory cytokines or chemokines (RT-qPCR)” value ([2]; cortex and hippocampus) was “largely brought down to nearly normal levels”. For the same molecule, the “expression of GM-CSF, RANKL and OPG (RT-qPCR)” value ([2]; cortex) was “unaffected”, the “p53 protein (Western blot)” value (p16Ink4a and p53; hippocampus homogenates, 6-MO female 5×FAD mice) was “reduced” and the “p16Ink4a and p53 transcripts (RT-PCR)” value (p16Ink4a and p53; hippocampus, 6-MO 5×FAD female mice) was “great reduction”. For the same molecule, the “Y maze total arm entries” value (5×FAD mice [3]) was “comparable arm entries to those of Veh-treated 5×FAD female mice”.
